Measurements reported in publication PMC5831858, “Pharmacological characterisation of CR6086, a potent prostaglandin E2 receptor 4 antagonist, as a new potential disease-modifying anti-rheumatic drug” (Arthritis Research & Therapy, 2018).

Columns and labels:
[1] = molecular target: T1, mouse EP4 receptor (Mus musculus, UniProt P32240); test: EP4 radioligand binding assay ([^3H]PGE2), mouse receptor; conditions: [^3H]PGE2 displacement; transiently transfected HEK293 membranes; read-out: Ki CR6086
T1 construct: the cDNA encoding the full-length rat (NM_032076) or mouse (NM_001136079) EP4 receptors; host or cells: HEK293 (transient)
T1 sequence (P32240 whole entry): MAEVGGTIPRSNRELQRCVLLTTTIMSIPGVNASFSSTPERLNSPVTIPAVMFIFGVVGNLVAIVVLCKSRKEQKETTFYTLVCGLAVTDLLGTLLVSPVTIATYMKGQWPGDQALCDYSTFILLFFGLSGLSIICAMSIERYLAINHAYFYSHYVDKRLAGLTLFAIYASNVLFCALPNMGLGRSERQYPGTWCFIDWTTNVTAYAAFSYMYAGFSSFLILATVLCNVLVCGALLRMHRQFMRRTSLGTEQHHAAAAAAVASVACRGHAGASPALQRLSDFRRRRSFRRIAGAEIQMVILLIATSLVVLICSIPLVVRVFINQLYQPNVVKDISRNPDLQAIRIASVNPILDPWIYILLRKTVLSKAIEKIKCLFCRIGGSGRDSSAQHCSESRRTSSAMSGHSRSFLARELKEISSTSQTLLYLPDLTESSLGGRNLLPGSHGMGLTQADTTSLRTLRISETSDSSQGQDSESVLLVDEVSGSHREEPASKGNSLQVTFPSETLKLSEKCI
From the text: For rodent EP4 receptor cloning, the cDNA encoding the full-length rat (NM_032076) or mouse (NM_001136079) EP4 receptors cloned in pCMV6 entry was provided by OriGene Inc. (TrueORF Gold, catalogue numbers RN206839 and MC216813; OriGene, Rockville, MD, USA). Expression of rat and mouse receptors was obtained by transfecting HEK293 cells with the respective vector using Lipofectamine 3000 reagent (Thermo Fisher Scientific) according to the manufacturer’s instructions.
Membranes expressing the human EP4 receptor were prepared from stably transfected HEK293 cell line. […] Protein content of the cell membrane suspension was determined using bovine serum albumin (BSA) as a standard.
Experimental procedures were performed according to the method of Abramovitz et al.. […] The residual [^3H]PGE2 binding was determined using a solid scintillation counter (TopCount; PerkinElmer) after at least 1 h of stabilisation. In saturation binding studies, isotherm-binding curves generated with six to eight different concentrations of [^3H]PGE2 (from 0.5 to 25 nM) were evaluated. […]
Specific binding to the receptors was defined as the difference between total binding and non-specific binding, as determined in the presence of an excess of unlabelled ligand. […] Competition curves were analysed to assess the half-maximal inhibitory concentration (IC50). […] The results of replicated curves were expressed as mean ± SEM.

[2] = molecular target: rat EP4 receptor (Rattus norvegicus, UniProt P43114); test: EP4 receptor occupancy estimation from plasma exposure; conditions: 3 mg/kg; repeated doses
rat EP4 receptor, sequence (P43114 whole entry): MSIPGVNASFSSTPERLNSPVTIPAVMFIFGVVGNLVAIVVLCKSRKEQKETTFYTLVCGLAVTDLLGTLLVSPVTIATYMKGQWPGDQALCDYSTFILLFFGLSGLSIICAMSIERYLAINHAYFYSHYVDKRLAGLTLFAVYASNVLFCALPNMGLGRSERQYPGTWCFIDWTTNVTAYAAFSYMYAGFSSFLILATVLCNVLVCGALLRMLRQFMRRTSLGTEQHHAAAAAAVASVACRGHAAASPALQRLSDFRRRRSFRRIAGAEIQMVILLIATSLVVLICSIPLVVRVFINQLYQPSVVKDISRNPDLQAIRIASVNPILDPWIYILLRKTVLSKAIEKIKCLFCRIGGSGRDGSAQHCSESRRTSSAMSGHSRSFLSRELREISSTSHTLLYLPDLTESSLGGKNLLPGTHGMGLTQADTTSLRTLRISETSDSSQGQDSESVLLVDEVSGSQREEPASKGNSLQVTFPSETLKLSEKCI
Experimental: CR6086 concentrations in rat plasma were determined by high-performance liquid chromatography (Agilent 1200 series; Agilent Technologies, Santa Clara, CA, USA) coupled with a triple-quadrupole mass spectrometer (API 4000 QTRAP; SCIEX, Concord, ON, Canada). A ZORBAX SB-C18 2.0 × 50-mm, 3.5-μm column (Agilent Technologies) in isocratic conditions was used with mobile phase 0.1% formic acid in water/acetonitrile (68:32 vol/vol). The method was linear within the dynamic range 1.0–10,000 ng/ml (lower to upper limit of quantification). CR6086 plasma protein binding was determined in the 0.2–200 μM concentration range using [^14C]CR6086 and equilibrium dialysis. EP4 receptor occupancy (RO) was calculated on the basis of CR6086 concentrations according to the following formula: RO%=Cave/Cave+Ki×100,
An estimation of the receptor occupancy was attempted in the dose range investigated in CIA rats. Because the CIA experiments were conducted after repeated doses, whereas the exposure shown above was determined after a single dose of CR6086, receptor occupancy estimation in the CIA rats took into consideration the accumulation ratio of CR6086 after repeated doses averaging 1.19 in male rats. […] Thus, in our experiments, clinically relevant effects in the CIA rat model were observed starting from approximately 50% EP4 receptor occupancy. […]

[3] = molecular target: T2, EP1 (Homo sapiens, UniProt P34995); test: Eicosanoid receptor EP1 binding; conditions: [^3H]PGE2, HEK-293 cells, read-out: CR6086 Activity at 10µM
T2 construct: host or cells: HEK-293 cells
T2 sequence (P34995 whole entry): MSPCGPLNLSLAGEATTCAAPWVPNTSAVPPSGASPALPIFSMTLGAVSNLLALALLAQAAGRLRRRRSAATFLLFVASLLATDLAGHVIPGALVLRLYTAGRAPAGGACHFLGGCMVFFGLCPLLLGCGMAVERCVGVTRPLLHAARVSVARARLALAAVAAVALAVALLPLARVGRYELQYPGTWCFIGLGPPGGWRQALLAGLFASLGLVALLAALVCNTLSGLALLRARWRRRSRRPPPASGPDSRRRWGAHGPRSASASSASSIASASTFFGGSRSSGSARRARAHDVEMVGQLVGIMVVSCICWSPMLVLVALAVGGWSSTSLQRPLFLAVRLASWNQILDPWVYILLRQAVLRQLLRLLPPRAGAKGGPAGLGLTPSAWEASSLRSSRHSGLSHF

[4] = molecular target: DP1 (Homo sapiens, UniProt Q13258); test: Eicosanoid receptor DP1 functional assay; type: cell-based; conditions: CHO cells
DP1, sequence (Q13258 whole entry): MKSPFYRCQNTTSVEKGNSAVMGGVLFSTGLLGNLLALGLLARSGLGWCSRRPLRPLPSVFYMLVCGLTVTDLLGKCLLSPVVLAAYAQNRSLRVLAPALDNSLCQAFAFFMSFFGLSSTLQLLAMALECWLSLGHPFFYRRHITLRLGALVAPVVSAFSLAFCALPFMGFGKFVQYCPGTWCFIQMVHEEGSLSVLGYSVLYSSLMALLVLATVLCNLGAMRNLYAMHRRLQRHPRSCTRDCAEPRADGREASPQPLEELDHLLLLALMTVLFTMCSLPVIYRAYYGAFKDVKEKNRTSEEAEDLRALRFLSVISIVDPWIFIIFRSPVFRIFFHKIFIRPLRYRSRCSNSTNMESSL

[5] = molecular target: M2 (Homo sapiens, UniProt P08172); test: Muscarinic acetylcholine receptor M2 binding; conditions: [^3H]AF-DX 384, Human recombinant CHO cells, read-out: CR6086 Activity at 10µM
M2, sequence (P08172 whole entry): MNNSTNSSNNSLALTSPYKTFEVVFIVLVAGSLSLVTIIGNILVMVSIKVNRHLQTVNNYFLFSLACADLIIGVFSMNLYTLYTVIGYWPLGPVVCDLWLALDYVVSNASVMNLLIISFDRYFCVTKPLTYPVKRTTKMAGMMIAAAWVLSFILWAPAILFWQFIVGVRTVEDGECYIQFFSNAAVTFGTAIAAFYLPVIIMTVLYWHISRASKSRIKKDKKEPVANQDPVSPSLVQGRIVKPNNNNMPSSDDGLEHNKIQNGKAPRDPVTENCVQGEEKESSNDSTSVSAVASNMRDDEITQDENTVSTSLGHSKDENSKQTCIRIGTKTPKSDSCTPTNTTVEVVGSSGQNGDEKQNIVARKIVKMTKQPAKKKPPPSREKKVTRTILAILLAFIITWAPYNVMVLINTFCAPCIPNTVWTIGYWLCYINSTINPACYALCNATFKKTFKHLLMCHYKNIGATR

[6] = molecular target: 5-HT2B (Homo sapiens, UniProt P41595); test: Serotonin receptor 5-HT2B binding; conditions: [^125I](±)DOI, Human recombinant CHO cells, read-out: CR6086 Activity at 10µM
5-HT2B, sequence (P41595 whole entry): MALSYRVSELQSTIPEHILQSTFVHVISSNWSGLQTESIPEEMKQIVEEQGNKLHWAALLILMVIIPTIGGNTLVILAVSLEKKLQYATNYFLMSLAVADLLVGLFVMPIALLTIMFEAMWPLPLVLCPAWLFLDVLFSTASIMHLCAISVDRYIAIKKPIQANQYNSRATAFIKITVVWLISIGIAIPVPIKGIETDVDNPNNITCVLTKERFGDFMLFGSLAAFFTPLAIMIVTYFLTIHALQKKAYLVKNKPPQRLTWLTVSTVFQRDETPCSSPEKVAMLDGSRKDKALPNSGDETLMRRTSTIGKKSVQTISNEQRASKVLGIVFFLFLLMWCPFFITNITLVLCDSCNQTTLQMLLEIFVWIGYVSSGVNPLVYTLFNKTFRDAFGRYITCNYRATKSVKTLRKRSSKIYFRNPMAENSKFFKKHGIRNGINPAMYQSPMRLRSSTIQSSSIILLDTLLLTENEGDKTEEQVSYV

[7] = molecular target: AT2 (Homo sapiens, UniProt P50052); test: Angiotensin receptor AT2 binding; conditions: [^125I]CGP 42112A, Human recombinant HEK-293 cells, read-out: CR6086 Activity at 10µM
AT2, sequence (P50052 whole entry): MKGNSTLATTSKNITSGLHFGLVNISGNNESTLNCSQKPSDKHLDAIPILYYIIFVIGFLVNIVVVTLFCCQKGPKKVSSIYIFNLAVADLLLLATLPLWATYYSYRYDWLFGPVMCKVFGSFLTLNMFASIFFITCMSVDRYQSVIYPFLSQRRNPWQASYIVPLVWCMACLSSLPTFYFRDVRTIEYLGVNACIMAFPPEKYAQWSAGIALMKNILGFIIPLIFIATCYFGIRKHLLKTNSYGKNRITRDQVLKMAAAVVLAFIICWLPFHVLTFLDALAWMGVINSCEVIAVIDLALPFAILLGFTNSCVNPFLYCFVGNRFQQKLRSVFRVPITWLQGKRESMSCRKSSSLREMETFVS

[8] = test system: Kv channel; test: Ion channel Kv binding; conditions: [^125I]α-dendrotoxin, Rat cerebral cortex

**Q.** How did the Ki [1] turn out when `O=C([O-])c1ccc(C2(NC(=O)[C@H]3CC4(CCN3Cc3ccc(C(F)(F)F)cc3)CC4)CC2)cc1.[Na+]` [CR6086, Sodium (R)-4-(1-(6-(4-(trifluoromethyl)benzyl)-6-azaspiro[2.5]octane-5-carboxamido)cyclopropyl)benzoate] was run?
**A.** 75.9 ± 7.6 nM

**Q.** And the “estimated EP4 receptor occupancy” value [2]?
**A.** approximately 50%

**Q.** What about the inhibition at 10 µM [3] of the same compound?
**A.** < 20%

**Q.** What about the inhibition at 10 µM ([4]; agonist effect, read-out: CR6086 Activity at 10µM) of the same compound?
**A.** < 20%

**Q.** And the “CR6086 Activity at 10µM” value ([4]; antagonist effect)?
**A.** IN (IN = < 20% displacement or inhibition (all tables))

**Q.** What about the inhibition at 10 µM [5] of the same compound?
**A.** < 20%

**Q.** What about the inhibition at 10 µM [6] of the same compound?
**A.** < 20%

**Q.** And the inhibition at 10 µM [7]?
**A.** < 20%

**Q.** And the “CR6086 Activity at 10µM” value [8]?
**A.** IN (IN = < 20% displacement or inhibition (all tables))
